Source: US10787413B2, “Derivatives of curcuminoids and use thereof as an anticancer agent” (CHINA MEDICAL UNIVERSITY, priority 2016, dated 2020)
Like-named read-outs stand apart in the source and are kept apart here.

Tests used:
[1] = tested on: MDA-MB-231 breast cancer cell; experiment: MTT cell viability assay, MDA-MB-231 breast cancer cell; type: cell-based, human; settings: for IC50: Homo sapiens
Method: (§1) Cell viability was evaluated by measuring the reduction in MTT to yield blue formazan. Cells were cultured in 96-well plates, allowed to attach overnight, and then treated with compounds. After treatment, MTT solution (1 mg/ml) was added to each well, and plates were incubated for another 4 h.

[2] = tested on: HCT-116 colon cancer cell; experiment: MTT cell viability assay, HCT-116 colon cancer cell; type: cell-based; settings: Homo sapiens
Method: as §1, with “h. Medium were removed, blue formazan was dissolved in DMSO, and the absorbance was read at 570 nm^20.” for “h.”

[3] = tested on: PC3 prostate cancer cell; experiment: MTT cell viability assay, PC3 prostate cancer cell; type: cell-based
Method: as §1, with “h. Medium were removed, blue formazan was dissolved in DMSO, and the absorbance was read at 570 nm^20.” for “h.”

[4] = tested on: Doxorubicin-resistant MDA-MB-231; experiment: Cell viability, Doxorubicin-resistant MDA-MB-231; type: cell-based; settings: for IC50: Doxorubicin-resistant MDA-MB-231, treated for 24 h
Method: as §1, with “h. Medium were removed, blue formazan was dissolved in DMSO, and the absorbance was read at 570 nm^20.” for “h.”

[5] = Preliminary acute toxicity assay; settings: oral 500 mg/kg/day for 5 consecutive days, 21 days observation, vs untreated control
Method: Normal mice were treated with 21a or 35a by oral route at 500 mg/kg/day for 5 consecutive days, following by 21 days of post-treatment observation. […] Detailed data for their toxicology and safety pharmacology studies will be carried out in the near future.
Female nu/nu mice (5 weeks old) were P.O. with vehicle (propylene glycol, 0.1 ml) or high dose of 21a (250 and 500 mg/kg) and 35a (500 mg/kg) for 5 days followed by observation of behavior and lethargy for 21 days.

[6] = tested on: T47D; experiment: Cell viability, T47D breast cancer cells; type: cell-based; settings: Homo sapiens; T47D (ER+/PR+), treated for 24 h
Method: as §1, with “h. Medium were removed, blue formazan was dissolved in DMSO, and the absorbance was read at 570 nm^20.” for “h.”

[7] = tested on: MCF-7; experiment: Cell viability, MCF-7 breast cancer cells; type: cell-based; settings: Homo sapiens, MCF7; MCF-7 (ER+/PR+), treated for 24 h
Method: as §1, with “h. Medium were removed, blue formazan was dissolved in DMSO, and the absorbance was read at 570 nm^20.” for “h.”

[8] = tested on: MDA-MB-453; experiment: Cell viability, MDA-MB-453 breast cancer cells; type: cell-based; settings: Homo sapiens; MDA-MB-453 (Her-2+), treated for 24 h
Method: as §1, with “h. Medium were removed, blue formazan was dissolved in DMSO, and the absorbance was read at 570 nm^20.” for “h.”

[9] = tested on: BT-474; experiment: Cell viability, BT-474 breast cancer cells; type: cell-based; settings: Homo sapiens; BT-474 (Her-2+), treated for 24 h
Method: as §1, with “h. Medium were removed, blue formazan was dissolved in DMSO, and the absorbance was read at 570 nm^20.” for “h.”

[10] = tested on: SKBR-3; experiment: Cell viability, SKBR-3 breast cancer cells; type: cell-based; settings: Homo sapiens, SK-BR-3; SKBR-3 (Her-2+), treated for 24 h
Method: as §1, with “h. Medium were removed, blue formazan was dissolved in DMSO, and the absorbance was read at 570 nm^20.” for “h.”

[11] = tested on: MDA-MB-468; experiment: Cell viability, MDA-MB-468 breast cancer cells; type: cell-based; settings: Homo sapiens; MDA-MB-468 (Triple negative), treated for 24 h
Method: as §1, with “h. Medium were removed, blue formazan was dissolved in DMSO, and the absorbance was read at 570 nm^20.” for “h.”

[12] = tested on: MDA-MB-157; experiment: Cell viability, MDA-MB-157 breast cancer cells; type: cell-based; settings: Homo sapiens; MDA-MB-157 (Triple negative), treated for 24 h
Method: as §1, with “h. Medium were removed, blue formazan was dissolved in DMSO, and the absorbance was read at 570 nm^20.” for “h.”

[13] = tested on: HS-578T; experiment: Cell viability, HS-578T breast cancer cells; type: cell-based; settings: Homo sapiens; HS-578T (Triple negative), treated for 24 h
Method: as §1, with “h. Medium were removed, blue formazan was dissolved in DMSO, and the absorbance was read at 570 nm^20.” for “h.”

[14] = tested on: MDA-MB-231 Xenograft; experiment: In vivo antitumor activity, MDA-MB-231 Xenograft nude mice model; settings: treated vs untreated control group during antitumor evaluation
Method: Female nu/nu mice (5 weeks old) were from National Laboratory Animal Center, Taipei, Taiwan. Mice were maintained under the procedures and guidelines from the Institutional Animal Care and Use Committee of the National Health Research Institutes, Taipei, Taiwan. All experiments were supervised under the Institutional Animal Care and Use Committee, China Medical University, Taichung, Taiwan. MDA-MB-231 breast cancer cells (5×10^6 cells per mouse) were suspended in 0.1 ml of Matrigel solution (50% (v/v) Matrigel in PBS) and inoculated into the mammary fat pads of the mice. […] Compounds was administered P.O. once every day for 32 days. Tumor size and mouse body weight were measured once every 4 days, and tumor volume (mm3) was calculated using the equation: length×(width)^2×0.5. At the end of experiments, mice were sacrificed and tumor nodules were dissected and weighed.

[15] = HCT-116, treated 24 hours, read-out: IC50 24 hours
[16] = HCT-116, treated 48 hours, read-out: IC50 48 hours
[17] = HCT-116, treated 72 hours, read-out: IC50 72 hours
[18] = PC-3, treated 24 hours, read-out: IC50 24 hours
[19] = PC-3, treated 72 hours, read-out: IC50 72 hours

Structure (SMILES): COc1cc(/C=C/C(=O)C(C)(C)C(=O)/C=C/c2ccc(OC(=O)C(C)(CO)CO)c(OC)c2)ccc1OC(=O)C(C)(CO)CO [Compound 35a, ((1E,6)-4,4-Dimethyl-3,5-dioxohept-1,6-diene-1,7-diyl)bis(2-methoxy-4,1-phenylene) bis(3-hydroxy-2-(hydroxymethyl)-2-methylpropanoate)]
- IC50 ([1]; MDA-MB-231, 24 h, MDA-MB-231, treated 24 hours, read-out: IC50 24 hours): 5.33 ± 0.69 µM
- IC50 ([1]; MDA-MB-231, 72 h, MDA-MB-231, treated 72 hours, read-out: IC50 72 hours): 1.98 µM
- times more potent than curcumin (IC50) ([1]; MDA-MB-231, 72 h treatment, curcumin IC50 16.23 μM): 8.2 times
- IC50 [2, 15]: 6.67 ± 0.43 µM
- IC50 [2, 16]: 3.35 ± 0.09 µM
- IC50 [2, 17]: 1.65 ± 0.16 µM
- IC50 [3, 18]: 3.49 ± 0.4 µM
- IC50 [3, 19]: 1.76 ± 0.14 µM
- times greater inhibitory activity than curcumin ([4]; Doxorubicin-resistant MDA-MB-231): 10 times
- IC50 ([4]; Homo sapiens, MDA-MB-231, 24 h): 5.7 µM
- body weight and behavior change [5]: no significant difference

Structure (SMILES): COc1cc(/C=C/C(=O)/C=C(O)/C=C/c2ccc(O)c(OC)c2)ccc1O [Curcumin, (E,E)-1,7-bis (4-hydroxy-3-methoxyphenyl)-1,6-heptadiene-3,5-dione]
- IC50 ([1]; MDA-MB-231, 24 h, read-out: IC50 24 hours): 38.8 ± 3.35 µM
- IC50 ([1]; MDA-MB-231, 48 h, read-out: IC50 48 hours): 22.1 ± 2.97 µM
- IC50 ([1]; MDA-MB-231, treated 72 hours, read-out: IC50 72 hours): 16.2 µM
- IC50 [2, 15]: 78 ± 11.2 µM
- IC50 [2, 16]: 26.3 ± 1.38 µM
- IC50 [2, 17]: 13.8 ± 0.5 µM
- IC50 [3, 18]: 57.1 ± 10.1 µM
- IC50 ([3]; PC-3, treated 48 hours, read-out: IC50 48 hours): 30 ± 0.72 µM
- IC50 [3, 19]: 18.8 ± 1.31 µM
- IC50 [6]: 47.9 ± 3.9 µM
- IC50 [7]: 42.9 ± 2.36 µM
- IC50 [8]: 32.4 ± 1.41 µM
- IC50 [9]: 30.1 ± 1.42 µM
- IC50 [10]: 42.8 ± 1.47 µM
- IC50 [11]: 42.9 ± 2.35 µM
- IC50 [12]: 40.4 ± 3.26 µM
- IC50 [13]: 55.5 ± 1.39 µM
- IC50 [4]: 58.6 ± 4.03 µM
- IC50 ([4]; Homo sapiens, MDA-MB-231, 24 h): 57.6 µM
- body weight, behavior change and blood chemistry (serology detection) [14]: no significant difference
